Reference: article PMC7558015, “Enhanced Intestinal Absorption and Pharmacokinetic Modulation of Berberine and Its Metabolites through the Inhibition of P-Glycoprotein and Intestinal Metabolism in Rats Using a Berberine Mixed Micelle Formulation” (Pharmaceutics, 2020)
Like-named read-outs stand apart in the source and are kept apart here.

Tests used:
[1] = cited from earlier work
[2] = test system: Caco-2 cells; assay: Caco-2 permeability / transport of berberine and berberine formulation; type: in vitro ADME
Method: (§1) The cells were grown for 21 days and the culture medium was changed every 2 days. The integrity of the cell monolayers was evaluated prior to the transport experiments by measuring the transepithelial electrical resistance (TEER). […] To characterize the absorption transport of berberine in Caco-2 cells, the apical to basal (A to B) and basal to apical (B to A) transport of berberine was measured. […] The insert was then transferred to a well containing fresh HBSS medium every 15 min for 1 h. […] The transport medium on the apical side was replaced with 0.4 mL of fresh incubation medium every 15 min for 1 h. […] The insert was then transferred to a well containing fresh HBSS medium every 15 min for 1 h. […] The transport medium on the apical side was replaced with 0.4 mL of fresh incubation medium every 15 min for 1 h. […] The TEER values were monitored before and after the transport experiments with berberine formulation using an epithelial TEER meter (World Precision Instruments, Sarasota, FL, USA). A 100 μL aliquot of each sample was added to a 100 μL aliquot of ice-cold methanol containing 10 ng/mL of propranolol (IS). After vortexing and centrifuging the samples at 16,000× g for 10 min, the supernatant was injected directly into the LC-MS/MS system.

[3] = as above; type: in vitro ADME; settings: human
Method: as §1

[4] = test system: human colon cancer HCT-8 cells; design: method as in PMID 23682426; settings: cited from earlier work
[5] = Pharmacokinetic study after oral administration in rats; type: in vivo
Method: All the animal procedures were approved by the animal care and use committee of Kyungpook National University (Daegu, Korea; Approval No. KNU-2014-0097 and KNU-2019-0004). Male Sprague–Dawley rats weighing 250–270 g (8 weeks old) were purchased from Samtako Bio Korea (Osan, Kyunggido, Korea). When the rats arrived, they were housed with a 12 h light/dark cycle. Food and water were supplied ad libitum for 1 week prior to the animal experiment. […] The femoral vein, femoral arteries, and bile ducts of the rats were cannulated with polyethylene tubes (PE50 or PE10, Jungdo, Seoul, Korea) under anesthesia with isoflurane […] on the warming surgery table (YTK corp. Seoul, Korea), and the rats were remained on the warming table to maintain body temperature during the pharmacokinetic study. […] The prepared berberine suspension or berberine formulation was administered to rats via oral gavage. Blood samples (approximately 150 µL) were taken via the femoral artery at 0, 0.25, 0.5, 1, 1.5, 2, 4, 8, and 12 h after the oral administration, and pre-warmed saline (approximately 150 µL) was injected into the femoral vein to compensate the blood loss. The blood samples were centrifuged at 10,000× g for 1 min at 4 °C. Bile and urine samples were collected every 4 h for 12 h. After 12 h, the bile and urine samples were pooled and weighed. Aliquots (50 µL each) of plasma, urine, and bile samples were stored at −80 °C for the analysis of berberine and its metabolites. Plasma, urine, and bile samples (50 µL) were added to 150 µL of methanol containing propranolol (10 ng/mL), vortex-mixed for 15 min, and centrifuged at 10,000× g for 5 min at 4 °C. An aliquot (10 µL) of the supernatant was injected into the LC–MS/MS system. Agilent 6430 Triple Quad LC/MS system (Agilent, Wilmington, DE, USA) coupled with an Agilent 1260 series HPLC system was used for the analysis of berberine and its metabolites using the modified method of Kwon et al.. The separation was performed on a Synergy polar RP column (2.0 mm × 150 mm, 4 μm; Phenomenex, Torrance, CA, USA) using a gradient elution of the mobile phase that consisted of methanol and water with 0.1% formic acid at a flow rate of 0.2 mL/min. The composition of the mobile phase was as follows: 55% methanol for 0–2.5 min, 70% methanol for 3–5 min, 55% methanol for 5.3–12 min. The retention time was 3.01 min and 3.53 min for thalifendine-glucuronide and berberrubine-glucuronide, 6.30 min for thalifendine-sulfate, 7.79 min for berberine, 5.47 min for thalifendine, 6.38 min for berberrubine, and 2.53 min for propranolol. Mass spectra were recorded by electrospray ionization with a positive mode. Quantification was carried out using MRM at m/z 498.1 → 322.1 for thalifendine-glucuronide and berberrubine-glucuronide, m/z 402.0 → 322.1 for thalifendine-sulfate, m/z 336.1 → 320.0 for berberine, m/z 322.1 → 307.1 for thalifendine and berberrubine, and m/z 260.0 → 116.0 for propranolol. […] The thalifendine-glucuronide, berberrubine-glucuronide, and thalifendine-sulfate were relatively quantitated using berberine’s standard curve, since the authentic standard compounds were not available. The pharmacokinetic parameters were calculated by non-compartmental analysis using the WinNonlin Version 5.1 software (Pharsight, Certara, NJ, USA). Statistical analysis was performed using SPSS for Windows (version 24.0; IBM Corp., Armonk, NY, USA).

[6] = test system: Caco-2 cells; assay: cells
Method: Caco-2 cells were seeded onto 96-well plates (BD-Corning, Corning, NY, USA) at a density of 1 × 10^5 cells/well, and cultured for 24 h at 37 °C in a 5% CO2 incubator. […] As a control group, berberine was treated at concentrations of 0, 1, 5, 10, 50, 100, 500, and 1000 μM. After 24 h of treatment, 20 μL of CellTiter 96 aqueous one solution from a cell proliferation assay kit (Promega, Madison, WI, USA) was added to the culture medium and incubated for 1 h. The absorbance rate of the reaction mixture was measured at 492 nm using an Infiniti M200Pro microplate reader (Tecan, Zurich, Switzerland).

[7] = rats; cited from earlier work
[8] = design: method as in PMID 15531889; settings: 32 hypercholesterolemic patients; cited from earlier work
[9] = test system: β-Glucuronidase and sulfatase; assay: Glucuronidase and sulfatase treatment (bile samples, stability of standards); type: in vitro ADME, Helix pomatia
Method: The reaction was terminated by adding 150 µL of ice-cold methanol containing propranolol (10 ng/mL), vortex-mixed for 5 min, and centrifuged at 10,000× g for 5 min at 4 °C. An aliquot (10 µL) of the supernatant was injected into the LC–MS/MS system.

[10] = after Berberine Formulation PO 50 mg/kg, rats
[11] = after Berberine PO 50 mg/kg, rats
[12] = berberine formulation group compared with berberine group, PO 50 mg/kg, rats
[13] = male, Sprague–Dawley, rat, plasma, po, 50 mg/kg, plasma, after Berberine Formulation PO 50 mg/kg, rats
[14] = male, Sprague–Dawley, rat, plasma, po, 50 mg/kg, plasma, after Berberine Formulation PO 50 mg/kg, rats, read-out: Tmax (converted)
[15] = male, Sprague–Dawley, rat, plasma, po, 50 mg/kg, plasma, after Berberine PO 50 mg/kg, rats
[16] = male, Sprague–Dawley, rat, plasma, po, 50 mg/kg, plasma, after Berberine PO 50 mg/kg, rats, read-out: Tmax (converted)
[17] = 8 h of incubation, 37 °C, pH 5.0

COc1ccc2cc3[n+](cc2c1OC)CCc1cc2c(cc1-3)OCO2 [Berberine]
AUCliver ([1]; liver): 728.6 ng·h/mL | share of oral dose entering the portal vein ([1]; oral): 0.5% | share of oral dose metabolized in the enterocytes ([1]; oral): About 43.5% | share of oral dose not absorbed (P-gp-mediated efflux and self-aggregation) ([1]; oral): About 56% | AUCplasma ([1]; plasma): 86.4 ng·h/mL | efflux ratio ([2]; 100 μM of berberine (alone or in formulation)): 7.54 | CLint (P-gp-mediated efflux clearance) ([2]; Caco-2): 1.61 µL/min | Kd (absorptive diffusion clearance) ([2]; Caco-2): 0.03 µL/min | Vmax of B to A transport ([2]; Caco-2, 1–100 μM, Michaelis–Menten): 10.5 pmol/min | Km ([2]; Caco-2, 1–100 μM, Michaelis–Menten, read-out: Km of B to A transport): 6.5 µM | efflux ratio at 1 h, 1 μM ([3]; Caco-2, pH 7.4, 1 μM of berberine (alone or in formulation)): 14.1 | efflux ratio at 1 h, 100 μM ([3]; Caco-2, pH 7.4, 100 μM of berberine (alone or in formulation)): 7.5 | efflux ratio at 1 h, 10 μM ([3]; Caco-2, pH 7.4, berberine 10 μM, absence of CsA): 13.8 | efflux ratio at 1 h, 10 μM ([3]; Caco-2, pH 7.4, with cyclosporine A 25 μM, berberine 10 μM, presence of CsA 25 μM): 2.2 | IC50 [4]: 470 µM | Xb,12h (amount excreted into bile for 12 h) [5, 10]: 992 ± 563 ng | Xu,12h (amount excreted into urine for 12 h) [5, 10]: 21,273 ± 12,517 ng | Xb,12h (amount excreted into bile for 12 h) [5, 11]: 323.7 ± 155.8 ng | Xu,12h (amount excreted into urine for 12 h) [5, 11]: 47.3 ± 30.1 ng | fold increase in AUC [5, 12]: 15.6 fold | AUC [5, 13]: 537 ng·h/mL | Cmax [5, 13]: 140 ± 29.4 ng/mL | Tmax [5, 14]: 0.583 h | AUC [5, 15]: 34.5 ng·h/mL | Cmax [5, 15]: 67 ± 66.9 ng/mL | Tmax [5, 16]: 0.5 h | IC50 ([6]; Homo sapiens, Caco-2, 24 h, read-out: IC50 (cell viability)): 933 µM | berberine concentration without (significant) cytotoxicity ([6]; human, 24 h): up to 100 μM | AUC post intraduodenal administration as share of AUC post intraportal vein administration [7]: ~0.5% | AUC post intraportal vein administration as share of intravenous AUC [7]: 72% | bioavailability [7]: 0.68% | oral dose disappeared during gastrointestinal first-pass elimination [7]: 99.5% | decrease of low-density lipoprotein (LDL) cholesterol [8]: 25% | decrease of triglycerides [8]: 35% | lowering of total cholesterol [8]: 29% | stability after glucuronidase and sulfatase treatment [9, 17]: stable

COc1ccc2cc3[n+](cc2c1O)CCc1cc2c(cc1-3)OCO2 [Berberrubine]
Metabolic ratio (metabolite AUC to berberine AUC) [5, 10]: 0.00% | Xb,12h (amount excreted into bile for 12 h) [5, 10]: 0 ng | Xu,12h (amount excreted into urine for 12 h) [5, 10]: 67.78 ± 11.89 ng | Metabolic ratio (metabolite AUC to berberine AUC) [5, 11]: 0.04% | Xb,12h (amount excreted into bile for 12 h) [5, 11]: 0 ng | Xu,12h (amount excreted into urine for 12 h) [5, 11]: 22.80 ± 15.84 ng | AUC [5, 13]: 1.73 ng·h/mL | Cmax [5, 13]: 0.31 ± 0.18 ng/mL | Tmax [5, 14]: 0.917 h | AUC [5, 15]: 1.34 ng·h/mL | Cmax [5, 15]: 0.16 ± 0.03 ng/mL | Tmax [5, 16]: 4.17 h | degraded by glucuronidase and sulfatase treatment [9, 17]: more than 94%

COc1c(O)ccc2cc3[n+](cc12)CCc1cc2c(cc1-3)OCO2 [Thalifendine]
Xb,12h (amount excreted into bile for 12 h) [5, 10]: 1871 ± 1092 ng | Xu,12h (amount excreted into urine for 12 h) [5, 10]: 7209 ± 2632 ng | Metabolic ratio (metabolite AUC to berberine AUC) [5, 11]: 0.09% | Xb,12h (amount excreted into bile for 12 h) [5, 11]: 281.5 ± 250.2 ng | Xu,12h (amount excreted into urine for 12 h) [5, 11]: 199.3 ± 76.1 ng | fold increase in AUC [5, 12]: 9.3 fold | AUC [5, 13]: 28.1 ng·h/mL | Cmax [5, 13]: 5.45 ± 3.12 ng/mL | Tmax [5, 14]: 10.7 h | AUC [5, 15]: 3.04 ng·h/mL | Cmax [5, 15]: 0.64 ± 0.19 ng/mL | Tmax [5, 16]: 7 h | stability after glucuronidase and sulfatase treatment [9, 17]: stable | increase of peak after glucuronidase and sulfatase treatment ([9]; rat bile collected 12 h after oral berberine): 10.6 fold

thalifendine/berberrubine-sulfate
Tmax ([5]; rat, in vivo, po, 50 mg/kg): 10.67 ± 2.31 h | fold increase in AUC ([5]; rat, in vivo, po, 50 mg/kg): 5.8 fold
